ChEMBL document CHEMBL1148912, “New diterpenoids from the marine mangrove Bruguiera gymnorrhiza” (J Nat Prod, 2004)
≈ marks a conversion by molar mass, not a printed value.

Legend:
[1] = system: K562; test: Growth inhibition of human K562 cells; type: functional
[2] = Growth inhibition of mouse L929 cells; type: cell-based
[3] = system: HeLa; test: Cytotoxicity against human HeLa cells; type: functional

GI50 [1] [µg/mL] | SMILES | GI50 [2] [µg/mL] | CC50 [3] [µg/mL]
32.8 (≈ 102 µM) | C[C@@]12CCC[C@@](C)(C(=O)O)[C@H]1CC[C@@]13C[C@H](CO)[C@@H](CC[C@H]12)C3 | 42.4 (≈ 132 µM) | 43 (≈ 134 µM)
26.7 (≈ 76.6 µM) | COC(=O)[C@]1(C)CCC[C@@]2(C)C3=CC[C@H]4C[C@]3(CC[C@H]12)C[C@]4(O)CO | 41.9 (≈ 120 µM) | 38.7 (≈ 111 µM)
29.2 (≈ 82.3 µM) | C[C@@]12CCC[C@@](C)(C=O)[C@H]1CC[C@]13C[C@](O)(CC[C@H]12)[C@](O)(CCl)C3 | 50 (≈ 141 µM) | 38.2 (≈ 108 µM)
50 (≈ 156 µM) | C[C@@]12CCC[C@@](C)(C=O)[C@H]1CC[C@@]13C[C@@H](CC[C@H]12)[C@@](O)(CO)C3 | 50 (≈ 156 µM) | 50 (≈ 156 µM)
6.8 (≈ 23.6 µM) | C=C1C[C@@]23CC[C@@H]4[C@](C)(CO)CCC[C@@]4(C)[C@@H]2CC[C@H]1C3 | 18.2 (≈ 63.1 µM) | 32.8 (≈ 114 µM)
50 (≈ 164 µM) | C=C1C[C@]23CC[C@@H]4[C@](C)(CO)CCC[C@@]4(C)[C@@H]2CC[C@@]1(O)C3 | 50 (≈ 164 µM) | 50 (≈ 164 µM)
0.01 (≈ 0.0117 µM) | CC(=O)O[C@H]1C(=O)[C@@]2(C)[C@H]([C@H](OC(=O)c3ccccc3)[C@]3(O)C[C@H](OC(=O)[C@H](O)[C@@H](NC(=O)c4ccccc4)c4ccccc4)C(C)=C1C3(C)C)[C@]1(OC(C)=O)CO[C@@H]1C[C@@H]2O [PACLITAXEL] | 0.1 (≈ 0.117 µM) | 0.01 (≈ 0.0117 µM)
27.7 (≈ 79 µM) | COC(=O)[C@]1(C)CCC[C@@]2(C)[C@@H]3CC[C@H]4C[C@]3(CC[C@@H]21)C[C@]4(O)CO | 39.5 (≈ 113 µM) | 40.5 (≈ 116 µM)
50 (≈ 157 µM) | C[C@@]12CCC[C@@](C)(C=O)[C@H]1CC[C@@]13CC(=O)[C@](CO)(CC[C@H]12)C3 | 45.4 (≈ 143 µM) | 37.7 (≈ 118 µM)
13.6 (≈ 44.4 µM) | C[C@@]1(CO)CCC[C@]2(C)[C@@H]1CC[C@@]13C[C@H](CO)[C@@H](CC[C@H]12)C3 | 12.8 (≈ 41.8 µM) | 35.7 (≈ 116 µM)
10.5 (≈ 34.7 µM) | C=C1C[C@]23CC[C@H]4[C@@](C)(CCC[C@@]4(C)C=O)[C@@H]2CC[C@@]1(O)C3 | 11.5 (≈ 38 µM) | 42.3 (≈ 140 µM)
